Earlier results in patent EP0837672B9, “PREPARATIONS AND METHODS FOR THE TREATMENT OF T CELL MEDIATED DISEASES” (YEDA RESEARCH AND DEVELOPMENT CO. LTD., priority 1995, dated 2005).

Test system: mice
Conditions: administered to mice sc in an oil vehicle such as incomplete Freund's adjuvant (IFA)

Row | Substance | peptide therapy for treatment of IDDM
1 | p12: peptide corresponding to positions 166-185 of the human hsp60 sequence (EEIAQVATISANGDKEIGNI; UniProt P10809 166-185, looked up, fragment) | effective
2 | p32: peptide corresponding to positions 466-485 of the human hsp60 sequence (EIIKRTLKIPAMTIAKNAGV; UniProt P10809 466-485, looked up, fragment) | effective
3 | p277: peptide corresponding to positions 437-460 of the human hsp 60 sequence (VLGGGCALLRCIPALDSLTPANED; UniProt P10809 437-460, looked up, fragment) | effective
